Data set [1] has as its target T1, calcium-dependent protein kinase 1 (PfCDPK1, PF3D7_0217500) (Plasmodium falciparum, UniProt P62344).
T1 construct: gene CDPK1
Briefly: Kinobead competitive pulldown from asexual blood stage parasite lysate, mass spectrometry. The format is biochemical.

The target in data set [2] is T2, cAMP-dependent protein kinase catalytic subunit (PfPKAc, PF3D7_0934800) (Plasmodium falciparum, UniProt Q7K6A0).
T2 construct: with PfPKAr (PF3D7_1223100)
T2 sequence (Q7K6A0 1-342): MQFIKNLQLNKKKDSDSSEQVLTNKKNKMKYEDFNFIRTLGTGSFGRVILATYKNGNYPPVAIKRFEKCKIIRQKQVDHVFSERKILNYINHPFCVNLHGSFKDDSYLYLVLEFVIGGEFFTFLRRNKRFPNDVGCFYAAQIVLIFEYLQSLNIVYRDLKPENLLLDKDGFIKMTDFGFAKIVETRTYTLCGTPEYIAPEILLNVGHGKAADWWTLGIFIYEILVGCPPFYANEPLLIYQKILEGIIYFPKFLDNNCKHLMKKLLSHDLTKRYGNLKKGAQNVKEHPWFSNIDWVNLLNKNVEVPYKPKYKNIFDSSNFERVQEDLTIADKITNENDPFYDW
T2 sequence (Q7KQK0 1-441 partner): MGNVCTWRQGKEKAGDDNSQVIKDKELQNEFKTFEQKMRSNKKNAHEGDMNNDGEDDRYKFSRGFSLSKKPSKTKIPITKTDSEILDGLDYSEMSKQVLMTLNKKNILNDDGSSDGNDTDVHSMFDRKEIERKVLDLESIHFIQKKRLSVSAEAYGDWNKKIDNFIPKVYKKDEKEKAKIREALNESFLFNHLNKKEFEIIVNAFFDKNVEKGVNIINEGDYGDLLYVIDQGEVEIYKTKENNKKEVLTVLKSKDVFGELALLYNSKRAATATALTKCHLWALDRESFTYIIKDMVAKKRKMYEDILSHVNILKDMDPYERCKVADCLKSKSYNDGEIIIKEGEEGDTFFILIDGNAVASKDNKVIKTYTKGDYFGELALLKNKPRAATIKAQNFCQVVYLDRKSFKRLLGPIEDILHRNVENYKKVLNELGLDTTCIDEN
The description is as above. The format is biochemical.

The target of data set [3] is T3, 3-phosphoinositide-dependent protein kinase 1 (PfPDK1, PF3D7_1121900) (Plasmodium falciparum, UniProt Q8IIE7).
T3 sequence (Q8IIE7 1-525): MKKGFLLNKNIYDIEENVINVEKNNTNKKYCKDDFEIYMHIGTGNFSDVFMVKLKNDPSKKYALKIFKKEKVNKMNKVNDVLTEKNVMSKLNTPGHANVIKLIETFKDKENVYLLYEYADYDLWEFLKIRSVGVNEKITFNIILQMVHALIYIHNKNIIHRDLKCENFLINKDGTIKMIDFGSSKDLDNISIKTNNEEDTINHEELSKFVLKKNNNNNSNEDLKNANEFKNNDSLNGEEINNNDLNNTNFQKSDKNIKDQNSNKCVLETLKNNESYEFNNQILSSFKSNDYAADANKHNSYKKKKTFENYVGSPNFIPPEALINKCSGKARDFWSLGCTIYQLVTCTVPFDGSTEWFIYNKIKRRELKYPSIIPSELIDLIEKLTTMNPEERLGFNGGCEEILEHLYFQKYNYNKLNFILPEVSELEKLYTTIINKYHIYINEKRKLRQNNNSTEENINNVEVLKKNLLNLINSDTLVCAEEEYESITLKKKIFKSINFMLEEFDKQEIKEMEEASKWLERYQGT
The description is as above. The format is biochemical.

For data set [4], the system named is T4, Plasmodium falciparum PfNF54 (WT).
T4 construct: NF54
The experiment in a line: microbe, parasite or virus in culture. Also on record: species or system P. falciparum asexual blood stages; asexual blood stage growth inhibition, modified [3H]-hypoxanthine incorporation. As to conditions: read-out: PfNF54 control (–Shield-1) IC50 (nM).

The target in data set [5] is T5, glycogen synthase kinase 3 β (PfGSK3β, PF3D7_0312400) (Plasmodium falciparum, UniProt O77344).
T5 sequence (O77344 1-440): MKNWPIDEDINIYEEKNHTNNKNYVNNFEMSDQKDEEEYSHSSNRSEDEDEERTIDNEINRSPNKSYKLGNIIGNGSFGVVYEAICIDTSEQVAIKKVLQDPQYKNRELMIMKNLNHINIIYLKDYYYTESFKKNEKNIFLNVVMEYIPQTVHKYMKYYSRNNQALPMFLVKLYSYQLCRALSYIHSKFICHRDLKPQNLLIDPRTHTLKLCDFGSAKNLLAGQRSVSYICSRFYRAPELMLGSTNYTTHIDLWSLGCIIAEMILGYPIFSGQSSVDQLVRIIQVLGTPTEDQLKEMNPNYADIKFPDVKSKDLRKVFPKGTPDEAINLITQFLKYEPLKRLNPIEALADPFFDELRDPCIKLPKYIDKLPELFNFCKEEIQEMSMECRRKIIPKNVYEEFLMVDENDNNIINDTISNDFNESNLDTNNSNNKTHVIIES
Briefly: KinaseSeeker competition binding assay with recombinant kinase; also Kinobead competition (IC50 […]). As to conditions: read-out: IC50 value ± SEM or SD ^c.

Data set [6] has as its target T6, Serine/threonine protein kinase ; PF3D7_0605300 ; C6KSQ1 (Plasmodium falciparum, UniProt C6KSQ1).
T6 sequence (C6KSQ1 1-353): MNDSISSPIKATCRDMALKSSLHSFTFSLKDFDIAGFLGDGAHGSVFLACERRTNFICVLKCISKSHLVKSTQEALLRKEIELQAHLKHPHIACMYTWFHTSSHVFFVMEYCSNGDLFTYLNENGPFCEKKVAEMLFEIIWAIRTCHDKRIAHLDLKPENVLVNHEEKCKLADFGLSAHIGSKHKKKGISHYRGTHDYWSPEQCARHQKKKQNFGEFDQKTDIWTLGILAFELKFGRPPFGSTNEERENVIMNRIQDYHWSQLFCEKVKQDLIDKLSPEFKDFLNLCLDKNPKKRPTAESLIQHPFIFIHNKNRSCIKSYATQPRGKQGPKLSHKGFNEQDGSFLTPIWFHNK
Briefly: biochemical. As to conditions: Kdapp, apparent Kd, Kinobeads competition. Details: species or system Plasmodium falciparum asexual blood stage lysate; Kinobeads competitive pulldown from asexual blood stage P. falciparum extract, TMT quantitative mass spectrometry, apparent Kd. The text has this:
Eluted kinases are quantified in a dose-dependent manner via mass spectrometry. […] Data and error bars represent the mean and SD from two independent experiments. […] Data are plotted as the mean with error bars representing the SEM where N,n = 3,2.

Data set [7] relates to T7, Plasmodium falciparum PfDd2.
T7 construct: Dd2
The experiment in a line: microbe, parasite or virus in culture. As to conditions: read-out: Mean IC50 ± SEM (µM), pLDH. Details: species or system P. falciparum asexual blood stages; asexual blood stage growth inhibition, pLDH read-out. As for the experimental part:
(§1) Parasite growth inhibition was calculated relative to untreated controls, and IC50 values were determined by fitting dose-response curves. Each assay plate included appropriate growth, vehicle, and positive control wells.

Data set [8] has as its system T8, Plasmodium berghei Liver-stage PbLuc.
T8 construct: PbLuc (luciferase reporter)
The experiment in a line: microbe, parasite or virus in culture. Details: liver-stage Plasmodium berghei luciferase inhibition assay. The text has this: (§2) Moderate activity was also observed against immature and late-stage gametocytes, in the low micromolar range, as well as against liver stages, in the submicromolar range (Table and Supplementary Table S3).

A short description of data set [9]: in vitro. Details: HepG2 liver cell cytotoxicity. The following applies: human, hepg2 cells; read-out: Liver cytotoxicity HepG2 IC50.
Description: as §2

Data set [10] concerns the target Aurora-related kinase 1 (PfArk1, PF3D7_0605300) (Plasmodium falciparum, UniProt C6KSQ1). The experiment in a line: KinaseSeeker competition binding assay with recombinant kinase; also Kinobead competition (Kd app […]) and conditional knockdown sensitization ([…]).
The test system of data set [11] is T9, Plasmodium falciparum PfRF7.
T9 construct: RF7
Briefly: microbe, parasite or virus in culture. As to conditions: read-out: Mean IC50 ± SEM (µM), SYBR Green I. Details: species or system P. falciparum asexual blood stages; asexual blood stage growth inhibition, SYBR Green I read-out. As for the experimental part:
as §1

The subject of data set [12] is T4, Plasmodium falciparum PfNF54 (WT). Briefly: microbe, parasite or virus in culture. Also on record: species or system P. falciparum asexual blood stages; asexual blood stage growth inhibition, SYBR Green I read-out. As to conditions: read-out: Mean IC50 ± SEM (µM), SYBR Green I. As for the experimental part: as §1
Data set [13] has as its system T10, Plasmodium falciparum PfCam3.II.
T10 construct: Cam3.II
Briefly: microbe, parasite or virus in culture. Also on record: species or system P. falciparum asexual blood stages; asexual blood stage growth inhibition, SYBR Green I read-out. As to conditions: read-out: Mean IC50 ± SEM (µM), SYBR Green I. As for the experimental part: as §1

Like-named read-outs stand apart in the source and are kept apart here.

T1 sequence (P62344 2-524): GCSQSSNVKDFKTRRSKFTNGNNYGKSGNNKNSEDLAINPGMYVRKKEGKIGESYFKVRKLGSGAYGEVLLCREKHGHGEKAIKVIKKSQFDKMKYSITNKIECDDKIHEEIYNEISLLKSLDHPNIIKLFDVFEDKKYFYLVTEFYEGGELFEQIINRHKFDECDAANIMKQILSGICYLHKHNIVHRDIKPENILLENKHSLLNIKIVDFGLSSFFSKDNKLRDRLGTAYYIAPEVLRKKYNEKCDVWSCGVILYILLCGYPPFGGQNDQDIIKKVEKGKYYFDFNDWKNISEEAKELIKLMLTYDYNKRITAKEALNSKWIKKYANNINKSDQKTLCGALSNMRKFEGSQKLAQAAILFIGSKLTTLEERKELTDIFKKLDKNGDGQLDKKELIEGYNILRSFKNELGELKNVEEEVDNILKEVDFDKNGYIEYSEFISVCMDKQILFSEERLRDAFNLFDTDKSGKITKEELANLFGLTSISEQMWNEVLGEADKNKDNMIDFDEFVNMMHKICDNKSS

By IC50 is commonly meant the midpoint of a concentration-inhibition curve. As for `O=c1[nH]c2ccc(Cl)cc2c(N[C@@H]2CN3CCC2CC3)c1-c1nc2ccccc2[nH]1` [CHIR-124], the Kd in data set [1] is 40 nM; in data set [2] it was 610 nM; in [3], 100 nM; in data set [6] (Experiment ID=X048537) it was 180 nM; in data set [6] (Experiment ID=X048538), 156 nM. In addition, the IC50 stood at 36 ± 7 nM in [4]; 200 ± 20 nM in data set [5]; 0.44 ± 0.05 µM in [7]; 310 nM in [8]; 380 ± 70 nM in data set [10]; 0.01 ± 0.001 µM in data set [11]. The IC50 in data set [12] stood at 0.033 ± 0.002 µM; in [13], 0.016 ± 0.002 µM. In [9], the CC50 is 4300 nM.

For the origin of these results see paper PMC13386468 (ACS Chemical Biology, 2025).
